Laboratory results: paper PMC10232738, “Five blueberry anthocyanins and their antioxidant, hypoglycemic, and hypolipidemic effects in vitro” (Frontiers in Nutrition, 2023)
Marks after values point to notes of the source that are not given here.

Columns and labels:
α-glucosidase = α-glucosidase inhibitory activity assay (p-NPG substrate); assay type: biochemical, Saccharomyces cerevisiae; settings: pH 6.9, 37°C, mean ± SD (n = 3)
Excerpt: Acetonitrile, methanol, and formic acid (HPLC grade) were obtained from Tedia Co. Inc. (Fairfield, OH, USA). Ethanol and phosphoric acid were purchased from Sinopharm Chemical Reagent Co. Ltd. (Shanghai, China). Folin-Ciocalteu's phenol reagent, 2,2-diphenyl-1-picrylhydrazyl (DPPH), 2,2′-azinobis-3-ethylbenzothiazoline-6-sulfonic acid (ABTS), α-glucosidase (from Saccharomyces cerevisiae), 4-nitrophenyl-α-D-glucose (p-NPG), and 6-hydroxy-2,5,7,8-tetramethylchroman-2-carboxylic acid (Trolox) were obtained from Sigma-Aldrich (St. Louis, MO, USA). Sodium fluorescein, 2,2′-azobis-2-amidino-propane (AAPH), metformin (Met), oleic acid (OA), and 2-[N-(7-Nitrobenz-2-oxa-1,3-diazol-4-yl)amino]-2-deoxy-D-glucose (2-NDBG) were obtained from Aladdin (Shanghai, China). The assay kits of triglycerides (TG), total cholesterol (TC), and oil-red-O staining were obtained from Jiancheng Bioengineering Institute (Nanjing, China). The BCA assay kit was obtained from Biosharp (Hefei, China). Dulbecco's modified Eagle's medium (DMEM), penicillin-streptomycin, and fetal bovine serum (FBS) were purchased from Invitrogen-Gibco (Grand Island, NY). The chemicals and reagents used in this study were all of pure analytical grade.
The α-glucosidase inhibitory activity was determined as previous methods with slight modifications ([12]). In short, the diluted sample working solution (1 μl) was added to 3 μl of α-glucosidase (0.5 U/ml in 0.1 M sodium phosphate buffer, pH 6.9) and 156 μl of 0.1 M sodium phosphate buffer (pH 6.9). Then, the mixture was incubated at 37°C for 20 min, and 40 μl of 1.5 mM p-NPG (dissolved in 100 mM sodium phosphate buffer, pH 6.9) was added and incubated for 20 min. Absorbance was measured by a microplate reader (Molecular Device, Sunnyvale, CA, USA). A complete reaction mixture without a sample was used as the control. Three parallel operations were performed. All the samples were analyzed in triplicate at five different concentrations around the IC50 values.

[1] = Oxygen radical absorbance capacity (ORAC) assay; settings: Trolox equivalents, pH 7.4, mean ± SD (n = 3)
Procedure: The oxygen radical absorbance capacity (ORAC) assay was performed according to the reported method with slight modifications ([11]). The assay was carried out in black-walled 96-well plates. Tested compounds were dissolved in 75 mM phosphate buffer (pH 7.4). […] A blank sample containing 20 μl of phosphate buffer in the reaction mix was prepared and measured. The area under the curve (AUC) was calculated for each sample by integrating the relative fluorescence curve. The net AUC of the sample was calculated by subtracting the AUC of the blank. The regression equation between net AUC and series concentration of Trolox was determined to establish a standard curve, and ORAC values were expressed as μmol Trolox equivalents/μmol samples using the standard curve established previously. All samples were analyzed in triplicate.

[2] = DPPH radical scavenging assay; settings: 30 min, 517 nm, mean ± SD (n = 3)
Procedure: DPPH assay was determined according to the reported method ([10]). The tested compounds were dissolved in ethanol and diluted to a series of concentrations to be used as test solutions. A total of 100 μl 0.16 mmol/L DPPH in methanol (5 mg/100 ml) was mixed with 100 μl of the test solution. […] A blank sample containing 100 μl of methanol in the DPPH solution was measured. The same procedure was followed for the positive control, ascorbic acid. All samples were analyzed in triplicate at five different concentrations around the EC50 values.

HepG2 cells [3] = assay: 2-NBDG glucose uptake in HG-OA stimulated HepG2 cells; assay type: cell-based, Human; settings: 12 h, HG-OA (36 mM glucose, 0.25 mM OA) treated HepG2, p < 0.001 vs model
Procedure: (§1) HepG2 cells were starved in DMEM with 2% FBS for 9 h. To establish an in vitro model of diabesity, cells were stimulated with high glucose (36 mM glucose) and 0.25 mM OA for 12 h according to our previous study ([14]). Then, BB1-BB5 (50 and 100 μM) and Met (100 μM) were added for another 12 h. OA or BB1-BB5 was dissolved in DMSO and added to HepG2 cells in DMEM, and the final DMSO concentration received by the cells was 0.1% (v/v).
After the model was established, HepG2 cells were treated with BB1-BB5 (50 and 100 μM in low and high doses, respectively) for 12 h. 2-NBDG, a fluorescent deoxyglucose, was added to measure glucose uptake ([15]). The culture solution was discarded, and 2-NBDG (100 μM, diluted in DMEM without serum) was added and incubated again for 40 min. […] In total, eight parallels were set up for each sample.

[4] = ABTS radical cation scavenging assay; settings: 6 min, 734 nm, mean ± SD (n = 3)
Procedure: The ABTS assay was performed as the reported method ([10]). Briefly, ABTS^+ radical cation was prepared by mixing a 7 mM aqueous stock solution of ABTS^+ and 2.6 mM potassium peroxydisulfate. The reaction mixture was stored in the dark at room temperature for 12 h prior to use. […] Then, 50 μl of the test solution was added to 200 μl of the ABTS^+ radical cation solution. […] A blank sample containing ABTS^+ solution was measured.

HepG2 cells [5] = assay: Intracellular total cholesterol (TC) in HG-OA stimulated HepG2 cells; assay type: cell-based, Human; settings: 12 h, HG-OA treated HepG2, vs model group
Procedure: as §1
After the model was established, HepG2 cells were treated with BB1–BB5 (50 and 100 μM in low and high doses, respectively) in 6-well plates for 12 h. The culture solution was discarded, and 200 μl of RIPA lysis buffer was added after three washes with PBS and placed on a shaker for 10 min. The cell contents were homogenized and centrifuged (4°C, 10,000 rpm) to extract the supernatant. The TC and TG level in HepG2 cells were tested using the commercial kit by glycerol phosphate oxidase (GPO)-peroxidase (PAP) method based on several enzyme-driven reactions. The end product, hydrogen peroxide, which can be oxidatively coupled with 4-aminoantipyrine and phenol in the presence of peroxidase to yield a chromogen, was measured at 500 nm ([16]). In total, eight replicates were set for each sample.

In the case of `OC[C@H]1O[C@@H](Oc2cc3c(O)cc(O)cc3[o+]c2-c2cc(O)c(O)c(O)c2)[C@H](O)[C@@H](O)[C@@H]1O` [BB2, delphinidin-3-O-glucoside], the IC50 (α-glucosidase) is reported as 240 ± 9.2 µM, the ORAC [1] is reported as 9.44 ± 0.12^d μmol Trolox/μmol and the EC50 [2] is reported as 61.4 ± 2.29 µM. For the same compound, the “Glucose uptake capacity (2-NBDG fluorescence)” value (“Glucose uptake capacity” below) (HepG2 cells [3]; 100 μM) was “significant increase” and the EC50 [4] was 20.7 ± 0.67 µM.
`O=C1O[C@H]([C@@H](O)CO)C(O)=C1O` [ascorbic acid, reference compound] gave an EC50 [2] of 112 ± 15.3 µM and an EC50 [4] of 44.5 ± 0.55 µM.
For `COc1cc(-c2[o+]c3cc(O)cc(O)c3cc2O[C@@H]2O[C@H](CO)[C@@H](O)[C@H](O)[C@H]2O)cc(O)c1O` [BB4, petunidin-3-O-glucoside], the IC50 (α-glucosidase) was 218 ± 22.7 µM, the “Intracellular TC levels” value (HepG2 cells [5]; 50 μM) was “noticeably reduced” and the “Intracellular TC levels” value (HepG2 cells [5]; 100 μM) was “noticeably reduced”. The ORAC [1] was 11.02 ± 0.16^c μmol Trolox/μmol, the EC50 [2] was 62.11 ± 0.27 µM and the “Glucose uptake capacity” value (HepG2 cells [3]; 100 μM) was “significant increase”. It also gave an EC50 [4] of 39.3 ± 1.55 µM.
In the case of `COc1cc(-c2[o+]c3cc(O)cc(O)c3cc2OC2OC(CO)C(O)C(O)C2O)cc(OC)c1O` (centres unmarked) [BB5, malvidin-3-O-galactoside], the IC50 (α-glucosidase) is reported as 185 ± 10.9 µM, the “Intracellular TC levels” value (HepG2 cells [5]; 100 μM) is reported as “noticeably reduced” and the ORAC [1] is reported as 11.89 ± 0.13^b μmol Trolox/μmol. The EC50 [2] was 38.8 ± 3.33 µM, the “Glucose uptake capacity” value (HepG2 cells [3]; 50 μM) was “significant increase” and the “Glucose uptake capacity” value (HepG2 cells [3]; 100 μM) was “significant increase”. For the same compound, the EC50 [4] was 14.3 ± 1 µM.
For `OCC1OC(Oc2cc3c(O)cc(O)cc3[o+]c2-c2cc(O)c(O)c(O)c2)C(O)C(O)C1O` (centres unmarked) [BB1, delphinidin-3-O-galactoside], the IC50 (α-glucosidase) was 68.3 ± 12.4 µM, the ORAC [1] was 13.23 ± 0.03^a μmol Trolox/μmol and the EC50 [2] was 39.91 ± 0.24 µM. The EC50 [4] was 19 ± 0.2 µM.
With `COc1cc(-c2[o+]c3cc(O)cc(O)c3cc2OC2OC(CO)C(O)C(O)C2O)cc(O)c1O` (centres unmarked) [BB3, petunidin-3-O-galactoside] the IC50 (α-glucosidase) was 68.5 ± 20.9 µM, the “Intracellular TC levels” value (HepG2 cells [5]; 100 μM) was “noticeably reduced” and the ORAC [1] was 11.31 ± 0.22^c μmol Trolox/μmol. The EC50 [2] was 63.2 ± 2 µM, the “Glucose uptake capacity” value (HepG2 cells [3]; 50 μM) was “significant increase” and the “Glucose uptake capacity” value (HepG2 cells [3]; 100 μM) was “significant increase”. For the same compound, the EC50 [4] was 24.2 ± 1.88 µM.
